Reference: patent publication US9504729B2, “Antiangiogenic small molecules and methods of use” (The United States of America, as represented by the …, priority 2009, dated 2016)

Assays:
in vitro = conditions: pig
FGFR1 = FGFR1 (Homo sapiens, UniProt P11362); test: SelectScreen kinase activity profiling, FGFR1; assay type: biochemical; design: concentration or dose not given beside the values; conditions: for Mean % Inhibition: mean of two independent trials
Excerpt: (§1) To characterize the RTK inhibitory activity of the antiangiogenic SMs described herein, 36 compounds were chosen and screened using Invitrogen's SelectScreen® kinase activity profiling service (described on-line at tools.invitrogen.com/content.cfm?pageid=10413#selection). VEGFR1 and FGFR2 RTK inhibitory activities were studied. […] Overall, a small minority of the SMs tested had any substantial kinase inhibitory activity. This observation supports a mechanism of antiangiogenic action other than RTK inhibition for most of the SMs described herein.

KDR(VEGFR2) = KDR(VEGFR2) (Homo sapiens, UniProt P35968); test: SelectScreen kinase activity profiling, KDR(VEGFR2); assay type: biochemical; design: % Inhibition / Mean % Inhibition: concentration or dose not given beside the values; conditions: KDR(VEGFR2); for Mean % Inhibition: mean of two independent trials
Excerpt: as §1

[1] = first of two independent trials
[2] = second of two independent trials

Sequence of FGFR1 (P11362 398-822 limits assumed): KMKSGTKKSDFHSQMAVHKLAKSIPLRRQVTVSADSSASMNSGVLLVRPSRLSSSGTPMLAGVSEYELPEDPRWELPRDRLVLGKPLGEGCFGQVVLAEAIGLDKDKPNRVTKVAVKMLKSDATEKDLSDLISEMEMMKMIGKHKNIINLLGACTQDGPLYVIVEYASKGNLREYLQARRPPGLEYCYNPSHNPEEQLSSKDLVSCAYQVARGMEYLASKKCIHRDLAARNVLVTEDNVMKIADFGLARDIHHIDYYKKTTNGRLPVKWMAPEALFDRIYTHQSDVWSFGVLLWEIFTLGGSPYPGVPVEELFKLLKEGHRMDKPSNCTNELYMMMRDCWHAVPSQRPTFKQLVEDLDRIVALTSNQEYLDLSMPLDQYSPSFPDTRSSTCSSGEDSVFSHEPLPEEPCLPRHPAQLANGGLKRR
Sequence of KDR(VEGFR2) (P35968 20-1356): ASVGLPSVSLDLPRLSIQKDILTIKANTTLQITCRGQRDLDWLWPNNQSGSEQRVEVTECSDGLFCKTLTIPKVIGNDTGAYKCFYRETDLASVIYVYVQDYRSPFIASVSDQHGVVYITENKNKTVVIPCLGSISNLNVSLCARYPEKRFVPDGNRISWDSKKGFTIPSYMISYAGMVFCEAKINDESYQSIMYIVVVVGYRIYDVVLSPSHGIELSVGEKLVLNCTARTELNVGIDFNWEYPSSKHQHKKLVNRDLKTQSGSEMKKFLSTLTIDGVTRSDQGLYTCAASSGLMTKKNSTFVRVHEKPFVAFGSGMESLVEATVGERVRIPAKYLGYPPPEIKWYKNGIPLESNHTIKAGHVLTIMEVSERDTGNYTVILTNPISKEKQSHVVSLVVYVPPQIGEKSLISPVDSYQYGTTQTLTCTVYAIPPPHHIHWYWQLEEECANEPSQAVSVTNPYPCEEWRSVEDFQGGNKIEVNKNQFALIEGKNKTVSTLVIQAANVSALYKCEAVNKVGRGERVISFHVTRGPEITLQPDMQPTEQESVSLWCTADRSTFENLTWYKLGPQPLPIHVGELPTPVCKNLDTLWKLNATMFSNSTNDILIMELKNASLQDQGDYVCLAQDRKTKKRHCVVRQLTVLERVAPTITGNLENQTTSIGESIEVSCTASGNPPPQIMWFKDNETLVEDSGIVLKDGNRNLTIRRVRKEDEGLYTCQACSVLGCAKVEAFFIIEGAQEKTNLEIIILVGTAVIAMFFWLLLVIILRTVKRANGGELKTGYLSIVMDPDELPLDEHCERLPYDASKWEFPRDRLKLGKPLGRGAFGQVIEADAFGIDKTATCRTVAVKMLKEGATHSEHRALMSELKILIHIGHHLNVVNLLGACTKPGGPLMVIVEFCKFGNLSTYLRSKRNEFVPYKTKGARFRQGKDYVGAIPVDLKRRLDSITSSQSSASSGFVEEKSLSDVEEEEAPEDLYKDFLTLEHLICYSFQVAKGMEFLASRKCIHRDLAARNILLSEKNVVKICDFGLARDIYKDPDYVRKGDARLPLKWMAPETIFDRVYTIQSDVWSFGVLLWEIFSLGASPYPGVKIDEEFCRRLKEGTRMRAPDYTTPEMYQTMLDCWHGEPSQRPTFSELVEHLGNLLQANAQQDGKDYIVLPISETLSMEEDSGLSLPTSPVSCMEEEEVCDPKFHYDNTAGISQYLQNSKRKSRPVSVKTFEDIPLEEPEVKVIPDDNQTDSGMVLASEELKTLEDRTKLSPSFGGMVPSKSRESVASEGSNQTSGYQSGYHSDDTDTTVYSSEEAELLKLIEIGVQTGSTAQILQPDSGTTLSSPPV

Compound	cytotoxicity (in vitro) [%]	% Inhibition (FGFR1; [1]) [%]	Mean % Inhibition (FGFR1) [%]	% Inhibition (FGFR1; [2]) [%]	% Inhibition (KDR(VEGFR2); [1]) [%]	Mean % Inhibition (KDR(VEGFR2)) [%]	% Inhibition (KDR(VEGFR2); [2]) [%]
Nc1ccn(C2OC(CO)C3[O][Sn]([c]4ccccc4)([c]4ccccc4)[O]C32)c(=O)n1 (stereo not shown) [Compound 36, 4-amino-1-[6-(hydroxymethyl)-2,2-diphenyl-3a,4,6,6a-tetrahydrofuro[3,4-d][1,3,2]dioxastannol-4-yl]pyrimidin-2-one]	7.66	–	–	–	–	–	–
CC(C)(C)c1cc(O)ccc1O [Compound 38, 2-tert-butylbenzene-1,4-diol]	6.74	–	–	–	–	–	–
Cc1cc(O)c(-c2cc(O)c(C)cc2O)cc1O [Compound 40, 2-(2,5-dihydroxy-4-methylphenyl)-5-methylbenzene-1,4-diol]	7.23	–	–	–	–	–	–
Cc1ccc(S(=O)(=O)OCC(=O)O)cc1 [Compound 41, 2-(4-methylphenyl)sulfonyloxyacetic acid]	7.59	–	–	–	–	–	–
CC1(C)[C@@H]2CC[C@]1(C)[C@H](OC(=O)CSC#N)C2 [Compound 42, [(1S,4R,6R)-1,7,7-trimethyl-6-bicyclo[2.2.1]heptanyl]2-thiocyanatoacetate]	6.99	–	–	–	–	–	–
CS(=O)(=O)c1ccc(/C=N/NC(N)=S)cc1 [Compound 43, [(E)-(4-methylsulfonylphenyl)methylideneamino] thiourea]	6.44	–	–	–	–	–	–
COc1ccc(NCc2c(O)ccc3ccccc23)cc1 [Compound 44, 1-[(4-methoxyanilino)methyl]naphthalen-2-ol]	6.45	–	–	–	–	–	–
Cc1cc(O)c(-c2cc(O)c(C)cc2O)cc1O [compound 2805]	–	1	6	10	42	47	52
CC1(C)C2CCC1(C)C(OC(=O)CSC#N)C2 (stereo not shown) [compound 3535]	–	−1	−2	−3	10	8	5
CC(C)(C)c1cc(O)ccc1O [compound 4972]	–	3	−2	−7	2	7	11
OC(c1cc(-c2ccccc2)nc2c1ccc1ccccc12)C1CCCCN1 (stereo not shown) [compound 13480]	–	5	8	10	4	3	2
Cc1ccc(S(=O)(=O)OCC(=O)O)cc1 [compound 16555]	–	3	3	3	11	11	11
O=C(c1no[n+]([O-])c1C(=O)c1csc2ccccc12)c1csc2ccccc12 [compound 18877]	–	−3	−2	0	10	7	4
CS(=O)(=O)c1ccc(/C=N/NC(N)=S)cc1 [compound 27063]	–	−3	−3	−2	12	11	11
NC(=O)SCC(=O)Nc1ccc2ncccc2c1 [compound 36738]	–	−1	1	4	16	16	17
COc1ccc(NCc2c(O)ccc3ccccc23)cc1 [compound 47924]	–	1	2	3	21	19	18
O=[As](O)(O)c1ccc(Cc2ccc([As](=O)(O)O)cc2)cc1 [compound 48300]	–	8	9	10	76	77	78
CC(C)(C)c1c2c(c(C(C)(C)C)c3c1OCN(Cc1ccccc1)C3)OCN(Cc1ccccc1)C2 [compound 48458]	–	5	6	8	13	11	9

Compound	cytotoxicity (in vitro) [%]	% Inhibition (FGFR1; [1]) [%]	Mean % Inhibition (FGFR1) [%]	% Inhibition (FGFR1; [2]) [%]	% Inhibition (KDR(VEGFR2); [1]) [%]	Mean % Inhibition (KDR(VEGFR2)) [%]	% Inhibition (KDR(VEGFR2); [2]) [%]
O=C(O)C1CCCN1Cc1ccc2c(c1)OCO2 (stereo not shown) [compound 108895]	–	4	4	4	5	6	6
CC1=C(Br)C(=O)C(C)=C(Br)C1=O.Cc1c(O)c(Br)c(C)c(O)c1Br [compound 112200]	–	9	7	5	100	99	99
O=C(O)c1c(Br)c(Br)c(Br)c(Br)c1C1c2ccc(O)cc2Oc2cc(O)ccc21 [compound 119889]	–	96	96	95	103	103	104
C1=Cc2ccccc2C1.C=C(C)c1ccccc1.[N-]=[N+]=Nc1ccccc1 [compound 122351]	–	−1	1	4	4	4	4
O=[N+]([O-])c1ccc(S(=O)(=O)Cc2ccccc2)c([N+](=O)[O-])c1 [compound 122657]	–	−3	−3	−3	14	14	14
CC(C)(C)c1cc(C#N)cc(Br)c1OP(=O)(Oc1c(Br)cc(C#N)cc1C(C)(C)C)c1ccccc1 [compound 203328]	–	4	4	4	9	8	7
S=C1SCN(C2CCCCCCCCCCC2)CN1C1CCCCCCCCCCC1 [compound 209910]	–	2	4	5	9	10	10
COc1ccc(CC2C(=O)NC(C)C(=O)N(C)C3C(=O)N(C)C(Cc4ccc(O)c(c4)Oc4ccc(cc4)C3O)C(=O)NC(C)C(=O)NC(C)C(=O)N2C)cc1 (stereo not shown) [compound 259968]	–	5	3	2	8	8	9
CCCCC[CH2][Hg][S]c1nc(N)nc2[nH]cnc12 [compound 268879]	–	3	1	−2	40	39	38
CC(=N[N-]C(=S)SCc1ccccc1)c1ccccn1.[Cl][Cu+] [compound 295642]	–	2	6	9	19	18	17
CSC(=[SH+])[N-]N=Cc1cccc(C)n1.CSC(=[SH+])[N-]N=Cc1cccc(C)n1.[Cu] [compound 310551]	–	−5	−3	−1	21	20	18
CSC(=[SH+])[N-]N=C(c1ccccn1)c1ccccn1.[Cu][Br] [compound 321206]	–	5	5	5	52	49	45
Nc1cc[c]([Hg])cc1.Nc1nc2c(ncn2C2OC(CO)C(O)C2O)c(=[SH+])[nH]1 (stereo not shown) [compound 321237]	–	7	6	5	105	105	104
O=C1c2ccccc2NC(c2cc(Cl)cc(Cl)c2O)N1CCc1ccccn1 (stereo not shown) [compound 328087]	–	3	4	5	9	9	9
CC(C)(O)/C=C/C(=O)C(C)(O)C1C(O)CC2(C)C3CC=C4C(C=C(O)C(=O)C4(C)C)C3(C)C(=O)CC12C (stereo not shown) [compound 521777]	–	1	1	0	10	9	8
CC1(C)CC(Nc2ccc(Nc3ccccc3)cc2)CC(C)(C)N1 [compound 632536]	–	1	4	7	15	16	16
COc1ccc(-c2csc3c2-n2cccc2C3=O)cc1 [compound 676693]	–	4	3	3	1	5	8
COC(=O)c1ccc(CCc2cc(O)ccc2O)cc1 [compound 681152]	–	4	3	3	10	9	8
